Source: US20160101093A1, “METHODS FOR THE TREATMENT OF PREMATURE EJACULATION” (priority 2013, published 2016)

Columns and labels:
[1] = system: patient with premature ejaculation; assay: Randomized blinded study of clinician-administered bupivacaine injection, IELT and PEP recorded (Example 4); assay type: in vivo, human; details: 0.25% bupivacaine
Experimental: A patient with premature ejaculation is 18 years or old and in a monogamous heterosexual relationship for 6 months. A screening/baseline run-in phase will request at least 4 measurements of IELT over a 4-6 week period. For each sexual episode, partner will record PEP, IELT, date and time of sexual encounter; patient will fill out PEP. To qualify for the treatment phase, patients must have a measured IELT of 2 minutes or less in 75% of valuable events. A volume of distribution of 0.4 and 0.8 mL will bathe the dorsal penile nerves as they are located just to the right and left of midline. Diffusion should occur across the midline given that the subcutaneous compartment has a low resistance to fluid migration. Diffusion of the drug solution should occur through Buck's fascia to the dorsal penile nerves. A concentration of bupivacaine (0.25%) is used for local nerve blocks. Doses of administration are of 1 mg of bupivacaine for the 0.4 mL volume and 2 mg for the 0.8 mL group. This is less than 1.5% of the maximum permitted dose. […] Patients will be randomized to one of 4 treatment groups. […] Subsequently, patient will be evaluated for eligibility for “treatment phase”—must have either: (1) IELT of 2 minutes or less in at least 75% or sexual episodes; or (2) IELT of 3 minutes or less in at least 75% of sexual episodes with PEP score indicating accompanying psychosocial or relationship distress. […]

[2] = system: patient with lifelong premature ejaculation; assay: Patient self-injection of bupivacaine at home, subcutaneous, dorsal penis (contemplated Examples 1 and 2); assay type: in vivo, human; details: dorsally within 1 cm proximal to the glans, self-injected
Experimental: “Prolongation of climax time” means an increase in time (increase in climax baseline time) from which a patient becomes sexually aroused to the time of sexual climax (i.e. orgasm). This is commonly measured as the ‘intravaginal latency time’ and is measured by stopwatch held and activated by the female partner commencing with insertion of male organ into the female, ending at climax of the male. In one aspect, “treating premature ejaculation” means increasing the time between the beginning of sexual arousal of a patient and ejaculation by the patient; and in particular instances, it can mean increasing the time from which sexual intercourse begins to the time of ejaculation. It is contemplated by the present invention, that a patient with lifelong premature ejaculation and relationship stress proceeds to contact their physician. The physician prescribes a teaching injection of 0.2 mL bupivacaine. The administration of bupivacaine is made dorsally just before the glans, e.g., within 1 cm proximal to the glans. The injection is made subcutaneously to the left or right of midline. The injection anesthetizes the dorsal penile nerve. A 30-32 gauge needle is used, and the need is 10 mm or less (e.g., between 4-10 mm, e.g., 4 mm). […] In one aspect the patient sees an improvement in prolonging climax from 45 seconds (prior to treatment) to 4 minutes (following treatment). It is contemplated by the present invention, that a patient with lifelong premature ejaculation and relationship stress proceeds to contact their physician. The physician prescribes a teaching injection of 0.4 mL bupivacaine. The administration of bupivacaine is made dorsally just before the glans, e.g., within 1 cm proximal to the glans. The injection is made subcutaneously to the left or right of midline. The injection anesthetizes the dorsal penile nerve. A 30-32 gauge needle is used, and the need is 7 mm or less (between 4-7 mm). […] In one aspect the patient sees an improvement in prolonging climax from 45 seconds (prior to treatment) to 4 minutes (following treatment).

CCCCN1CCCCC1C(=O)Nc1c(C)cccc1C (centres unmarked) [bupivacaine]
adverse dose-related effects ([1]; 1 mg (0.4 mL) or 2 mg (0.8 mL)): not anticipated | climax time following treatment (45 seconds prior to treatment) ([1]; treatment groups, 1 mg in 0.4 mL or 2 mg in 0.8 mL, clinician-injected): 4 min | climax time following treatment (45 seconds prior to treatment) ([2]; 0.2 mL bupivacaine): 4 min | intravaginal latency time increase ([2]; 0.2 mL bupivacaine): increases more than two-fold | side-effect profile compared to previous therapies ([2]; 0.2 mL bupivacaine): better side-effect profile compared to previous therapies | climax time following treatment (45 seconds prior to treatment) ([2]; 0.4 mL bupivacaine): 4 min | intravaginal latency time increase ([2]; 0.4 mL bupivacaine): increases more than two-fold | side-effect profile compared to previous therapies ([2]; 0.4 mL bupivacaine): better side-effect profile compared to previous therapies
